Patent publication US8158792B2, “Spiropiperidines for use as tryptase inhibitors” (Janssen Pharmaceutica N.V., priority 2007, dated 2012)

biological target: human lung tryptase; assay: β-Tryptase In-Vitro Enzyme Assay; type: biochemical; conditions: human lung tryptase 1 nM, substrate H-D-HHT-Ala-Arg-pNa 500 μM, pH 7.4, room temperature
Method: The β-tryptase assay was conducted with human lung tryptase (Cortex Biochem #CP3033) in an aqueous buffer (10 mM Tris, 10 mM Hepes, 150 mM NaCl, 0.1% PEG 8000, pH 7.4) using the chromogenic substrate H-D-HHT-Ala-Arg-pNa. […] Percent inhibition was calculated by comparing the initial reaction velocity of samples without inhibitor to those with inhibitor. The initial reaction velocities were analyzed using Microsoft Excel.

Row | SMILES | IC50
1 | NCc1ccc2c(c1)C1(CCN(C(=O)c3ccc(Cl)c(Cl)c3)CC1)CO2 [Cpd 1, 1-(3,4-dichlorophenyl)carbonyl-5′-aminomethyl-spiro[piperidine-4,3′-(2H)-benzo[b]furan]] | 31 nM
2 | O=C(NCc1ccc2c(c1)C1(CCNCC1)CO2)c1ccc(Cl)c(Cl)c1 [Cpd 2, 5′-(3,4-dichlorophenylcarbonylaminomethyl)-spiro[piperidine-4,3′-(2H)-benzo[b]furan]] | 1400 nM
3 | NCc1ccc2c(c1)C1(CCN(C(=O)c3cccc(C(=O)c4ccccc4)c3)CC1)CO2 [Cpd 4, 1-(3-benzoyl-phenyl)carbonyl-5′-aminomethyl-spiro[piperidine-4,3′-(2H)-benzo[b]furan]] | 750 nM
4 | NCc1ccc2c(c1)C1(CCN(C(=O)c3cccc(NC(N)=S)c3)CC1)CO2 [Cpd 5, 1-(3-aminothiocarbonylamino-phenyl)carbonyl-5′-aminomethyl-spiro[piperidine-4,3′-(2H)-benzo[b]furan]] | 450 nM
5 | NCc1ccc2c(c1)C1(CCN(C(=O)c3ccc(C(=O)c4ccccc4)cc3)CC1)CO2 [Cpd 6, 1-(4-benzoyl-phenyl)carbonyl-5′-aminomethyl-spiro[piperidine-4,3′-(2H)-benzo[b]furan]] | 5800 nM
6 | NCc1ccc2c(c1)C1(CCN(C(=O)c3ccc4c(c3)S(=O)(=O)c3ccccc3C4=O)CC1)CO2 [Cpd 7, 1-(9-oxo-10,10-dioxo-thioxanthen-3-yl)carbonyl-5′-aminomethyl-spiro[piperidine-4,3′-(2H)-benzo[b]furan]] | 780 nM
7 | NCc1ccc2c(c1)C1(CCN(C(=O)c3ccc4c(c3)C(=O)c3ccccc3-4)CC1)CO2 [Cpd 8, 1-(9-oxo-fluoren-2-yl)carbonyl-5′-aminomethyl-spiro[piperidine-4,3′-(2H)-benzo[b]furan]] | 3400 nM
8 | NCc1ccc2c(c1)C1(CCN(C(=O)c3ccc(NC(=O)Cn4cnc5ccccc54)cc3)CC1)CO2 [Cpd 9, 1-(4-benzoimidazol-1-ylmethylcarbonylamino-phenyl)carbonyl-5′-aminomethyl-spiro[piperidine-4,3′-(2H)-benzo[b]furan]] | 3300 nM
9 | NCc1ccc2c(c1)C1(CCN(C(=O)c3ccc(Cn4cnc5ccccc54)cc3)CC1)CO2 [Cpd 10, 1-(4-benzoimidazol-1-ylmethyl-phenyl)carbonyl-5′-aminomethyl-spiro[piperidine-4,3′-(2H)-benzo[b]furan]] | 3000 nM
10 | NCc1ccc2c(c1)C1(CCN(C(=O)c3ccc(S(N)(=O)=O)cc3)CC1)CO2 [Cpd 11, 1-(4-aminosulfonyl-phenyl)carbonyl-5′-aminomethyl-spiro[piperidine-4,3′-(2H)-benzo[b]furan]] | 4700 nM

The remaining lines, values ahead:

Row | IC50 | SMILES
11 | 480 nM | NCc1ccc2c(c1)C1(CCN(C(=O)[C@@H]3C[C@H]3c3ccccc3)CC1)CO2 (relative stereo) [Cpd 141, 1-(trans-2-phenyl-cyclopropyl)carbonyl-5′-aminomethyl-spiro[piperidine-4,3′-(2H)-benzo[b]furan]]
12 | 66 nM | NCc1ccc2c(c1)C1(CCN(C(=O)c3ccc(-c4ccc(Cl)cc4)o3)CC1)CO2 [Cpd 12, 1-[5-(4-chloro-phenyl)-furan-2-yl]carbonyl-5′-aminomethyl-spiro[piperidine-4,3′-(2H)-benzo[b]furan]]
13 | 1100 nM | NCc1ccc2c(c1)C1(CCN(C(=O)c3cc4cc(Cl)ccc4o3)CC1)CO2 [Cpd 13, 1-(5-chloro-benzo[b]-furan-2-yl)carbonyl-5′-aminomethyl-spiro[piperidine-4,3′-(2H)-benzo[b]furan]]
14 | 3700 nM | Cc1nc2cc(C(=O)N3CCC4(CC3)COc3ccc(CN)cc34)ccc2n1-c1ccccc1 [Cpd 14, 1-(1-phenyl-2-methyl-benzoimidazol-5-yl)carbonyl-5′-aminomethyl-spiro[piperidine-4,3′-(2H)-benzo[b]furan]]
15 | 5500 nM | NCc1ccc2c(c1)C1(CCN(C(=O)c3ccc(-c4cccc(C(F)(F)F)c4)cc3)CC1)CO2 [Cpd 15, 1-[4-(3-trifluoromethyl-phenyl)-phenyl]carbonyl-5′-aminomethyl-spiro[piperidine-4,3′-(2H)-benzo[b]furan]]
